Reference: EP3186387B1, “METHOD OF DETERMINING THE ACTIVITY OF ENZYMES CONVERTING CYTOSINE DERIVATIVES TO URACIL DERIVATIVES IN CELLS, TISSUES AND ORGANISMS” (Univerzita Palackého v Olomouci, priority 2014, dated 2016)

Test system: HeLa cells
Experiment: Determination of the deamination activity in adherent HeLa cells: signal of EdU/EdC in DNA, detected by anti-bromodeoxyuridine antibody or click reaction
Format: cell-based, Human
Details: for ratios of EC50 in EdU and EdC (KEdU½/KEdC½): two hours of incubation, without FdU
From the text: • Figure 1 The metabolism of EdC and EdCMP from the perspective of the deamination activity of some known deaminases in human cells. CDA - 2'-deoxycytidine/cytidine deaminase; dCK - 2'-deoxycytidine kinase; dCMPDA - 2'-deoxycytidine-5'-phosphate deaminase; cdN and mdN - cytosolic and mitochondrial pyrimidine specific 5'-deoxynucleotidase • Figure 2: Schematic depiction of determination of the activity of the enzymes transforming cytosine derivatives into uracil derivatives. • Figure 3: Determination of the deamination activity in HeLa cells using specific antibodies or using a click reaction (Example 1). The figure depicts the dependence of the average intensity of the signals on the used concentrations of EdU or EdC after two hours of incubation with various concentrations of EdU or EdC without the addition of FdU. Two methods were used for the detection of both modified nucleosides: A) detection with a click reaction with an azido dye (Alexa Fluor 488- azide); B) detection using primary anti-bromodeoxyuridine antibody and secondary antibody conjugated with Alexa Fluor 488. The measured intensities of the signals were processed in the Sigma Plot software, in which the curve was constructed and the half of maximal effective concentration (EC50) was determined. It is clear from the course of the graphs that EdC is not likely to be incorporated in the DNA. This was confirmed also by the mutual ratios between the measured values of the intensities obtained by the antibodies and by the click reaction. These ratios were 1.099 for EdU and 1.060 for EdC. […] For the determination, it is also possible to use other measured concentrations, because there was no saturation of the signal even at higher concentrations. • Figure 4 Time curve (Example 1). […] The incorporated nucleosides were detected using a click reaction with azidofluorochrome. • Figure 5: The comparison of the incorporation of FU and FC into HeLa cells when using various concentrations (Example 1). […] EdU was detected with antibodies. […]

C#Cc1cn([C@H]2C[C@H](O)[C@@H](CO)O2)c(=O)nc1N [EdC, 5-ethynyl-2'-deoxycytidine]
concentration of EdU providing approximately such a signal as 5 µmol.l^-1 EdC (EdC around 5 µmol.l^-1, not in the saturation area): ~0.55 µmol/L
ratios of EC50 in EdU and EdC (KEdU½/KEdC½) (detection performed by the antibodies): 0.23
ratios of EC50 in EdU and EdC (KEdU½/KEdC½) (detection performed by the click reaction): 0.32
